Here are results for 2 compounds from patent publication US12005123B2, “Conjugate of isotretinoin and peptide” (CAREGEN CO., LTD., priority 2017, dated 2024).

For series [1] the following is noted: cited from earlier work.
For series [2] the following is noted: background statement; cited from earlier work.
Series [3] can be described thus: Solubility test in distilled water. The series is classed as physicochemical. Conditions: 10 mg/ml, FIG. 1.

Like-named read-outs stand apart in the source and are kept apart here.

In the case of `CC1=C(/C=C/C(C)=C/C=C/C(C)=C/C(=O)O)C(C)(C)CCC1=O` [4-oxo-isotretinoin], in series [1] (6 hours after administration), the “blood concentration of active metabolite versus isotretinoin” value is “higher than the blood concentration of isotretinoin”.

On to `CC1=C(/C=C/C(C)=C/C=C/C(C)=C\C(=O)O)C(C)(C)CCC1` [isotretinoin, 13-cis-retinoic acid], for which the fasting bioavailability result in series [1] (fasting) is recorded as “about 20%”. The “time to reach the highest blood concentration” value in series [1] (oral administration) was 2 to 4 h. Further, the solubility in water result in series [2] is “low”; in series [3], “hardly dissolved in water”.
